# How the values were obtained:
# [1] = molecular target: T1, Sodium- and chloride-dependent betaine transporter (Homo sapiens) (UniProt P48065); test: Inhibition of human BGT1 expressed in CHO cells assessed as reduction in [3H]GABA uptake at 100 uM after 20 mins by liquid scintillation counting analysis relative to control; type: cell-based
# T1 sequence (whole entry): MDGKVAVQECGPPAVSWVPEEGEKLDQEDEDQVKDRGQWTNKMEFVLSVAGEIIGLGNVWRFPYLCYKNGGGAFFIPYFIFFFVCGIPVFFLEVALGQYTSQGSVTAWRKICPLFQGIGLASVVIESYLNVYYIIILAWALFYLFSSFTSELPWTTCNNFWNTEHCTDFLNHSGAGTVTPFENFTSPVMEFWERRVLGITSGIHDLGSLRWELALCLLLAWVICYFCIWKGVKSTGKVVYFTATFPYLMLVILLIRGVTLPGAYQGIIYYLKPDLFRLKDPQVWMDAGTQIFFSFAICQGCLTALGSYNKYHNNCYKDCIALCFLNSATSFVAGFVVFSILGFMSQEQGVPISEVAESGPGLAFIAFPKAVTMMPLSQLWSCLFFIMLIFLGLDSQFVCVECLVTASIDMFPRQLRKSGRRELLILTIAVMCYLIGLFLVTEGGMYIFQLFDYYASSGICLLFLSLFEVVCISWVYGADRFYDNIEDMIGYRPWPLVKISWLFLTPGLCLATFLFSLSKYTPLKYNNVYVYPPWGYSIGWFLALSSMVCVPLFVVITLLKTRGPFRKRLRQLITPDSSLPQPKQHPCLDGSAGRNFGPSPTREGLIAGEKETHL
# [2] = molecular target: T2, Sodium- and chloride-dependent GABA transporter 3 (Homo sapiens) (UniProt P48066); test: Inhibition of human GAT3 expressed in CHO cells assessed as reduction in [3H]GABA uptake at 100 uM after 20 mins by liquid scintillation counting analysis relative to control; type: cell-based
# T2 sequence (whole entry): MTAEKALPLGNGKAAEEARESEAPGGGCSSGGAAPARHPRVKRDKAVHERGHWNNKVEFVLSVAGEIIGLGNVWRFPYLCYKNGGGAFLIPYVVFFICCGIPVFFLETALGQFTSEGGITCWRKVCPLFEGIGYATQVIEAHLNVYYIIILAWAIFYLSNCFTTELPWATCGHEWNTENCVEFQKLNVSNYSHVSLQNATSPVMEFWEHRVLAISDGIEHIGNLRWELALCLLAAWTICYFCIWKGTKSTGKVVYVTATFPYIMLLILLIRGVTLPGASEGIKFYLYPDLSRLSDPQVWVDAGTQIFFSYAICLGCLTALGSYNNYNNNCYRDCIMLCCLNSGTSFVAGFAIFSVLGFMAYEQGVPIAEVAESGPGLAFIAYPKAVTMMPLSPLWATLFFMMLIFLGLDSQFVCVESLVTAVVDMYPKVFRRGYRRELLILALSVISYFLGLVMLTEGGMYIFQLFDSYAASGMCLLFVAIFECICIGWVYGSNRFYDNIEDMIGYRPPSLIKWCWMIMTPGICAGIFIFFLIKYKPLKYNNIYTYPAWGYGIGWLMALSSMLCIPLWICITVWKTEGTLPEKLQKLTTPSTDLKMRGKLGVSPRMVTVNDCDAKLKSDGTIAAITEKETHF
# [3] = molecular target: T3, Sodium- and chloride-dependent GABA transporter 2 (Homo sapiens) (UniProt Q9NSD5); test: Inhibition of human GAT2 expressed in CHO cells assessed as reduction in [3H]GABA uptake at 100 uM after 20 mins by liquid scintillation counting analysis relative to control; type: cell-based
# T3 sequence (whole entry): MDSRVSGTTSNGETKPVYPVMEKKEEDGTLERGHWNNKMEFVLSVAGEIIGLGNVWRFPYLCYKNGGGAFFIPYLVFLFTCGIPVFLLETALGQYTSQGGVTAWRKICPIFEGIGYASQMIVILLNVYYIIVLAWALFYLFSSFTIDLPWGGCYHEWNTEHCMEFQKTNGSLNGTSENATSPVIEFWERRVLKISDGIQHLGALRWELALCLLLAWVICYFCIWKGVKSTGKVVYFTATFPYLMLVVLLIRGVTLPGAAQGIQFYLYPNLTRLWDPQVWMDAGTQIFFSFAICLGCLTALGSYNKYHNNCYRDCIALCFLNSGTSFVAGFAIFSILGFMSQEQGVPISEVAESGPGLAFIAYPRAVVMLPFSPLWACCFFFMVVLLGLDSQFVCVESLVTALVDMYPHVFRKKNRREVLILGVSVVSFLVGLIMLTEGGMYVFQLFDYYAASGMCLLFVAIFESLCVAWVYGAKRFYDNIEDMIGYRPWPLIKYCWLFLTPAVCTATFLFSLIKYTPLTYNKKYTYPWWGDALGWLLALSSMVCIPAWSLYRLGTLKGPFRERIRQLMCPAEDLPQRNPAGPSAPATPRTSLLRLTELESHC
# Homo sapiens = organism: Homo sapiens; test: Selectivity for human BGT1 over human GAT3
# [4] = molecular target: Sodium- and chloride-dependent GABA transporter 1 (Homo sapiens) (UniProt P30531); test: Inhibition of human GAT1 expressed in CHO cells assessed as reduction in [3H]GABA uptake at 100 uM after 20 mins by liquid scintillation counting analysis relative to control; type: cell-based
# Sodium- and chloride-dependent GABA transporter 1 (Homo sapiens), sequence (P30531 whole entry, looked up): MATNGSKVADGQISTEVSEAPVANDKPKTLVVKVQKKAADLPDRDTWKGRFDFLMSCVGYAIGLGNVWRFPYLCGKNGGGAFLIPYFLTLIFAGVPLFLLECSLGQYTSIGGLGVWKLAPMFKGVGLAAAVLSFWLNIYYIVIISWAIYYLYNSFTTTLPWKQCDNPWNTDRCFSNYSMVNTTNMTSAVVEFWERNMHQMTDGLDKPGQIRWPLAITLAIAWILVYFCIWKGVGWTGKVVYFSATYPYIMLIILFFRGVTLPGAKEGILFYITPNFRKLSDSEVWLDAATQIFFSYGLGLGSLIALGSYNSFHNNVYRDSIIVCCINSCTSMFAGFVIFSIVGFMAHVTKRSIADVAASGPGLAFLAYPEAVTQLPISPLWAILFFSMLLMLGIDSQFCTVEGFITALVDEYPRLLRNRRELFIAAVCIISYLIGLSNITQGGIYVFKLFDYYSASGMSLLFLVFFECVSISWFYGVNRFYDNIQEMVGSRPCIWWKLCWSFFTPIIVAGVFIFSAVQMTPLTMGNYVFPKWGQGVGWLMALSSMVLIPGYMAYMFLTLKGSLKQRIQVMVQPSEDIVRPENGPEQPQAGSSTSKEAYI
SMILES,inhibition [1] [%],inhibition [2] [%],inhibition [3] [%],Selectivity ratio (Homo sapiens),inhibition [4] [%]
N[C@@H]1C[C@H]1[C@@H](F)C(=O)O,22.2,5.2,45.3,,
N[C@@H]1C[C@H]1[C@@H](O)C(=O)O,44.7,8.3,20.1,5 to 7,
C[C@@H](C(=O)O)[C@@H]1C[C@H]1N,62.7,9.3,-5.2,5 to 7,4.3
C=C[C@@H](C(=O)O)[C@@H]1C[C@H]1N,,-3.6,-9.5,,
CC[C@@H](C(=O)O)[C@@H]1C[C@H]1N,13.4,-2.4,3.3,,8.6
CC[C@H](C(=O)O)[C@@H]1C[C@H]1N,-1.3,,-2.4,,12.2
C[C@H](C(=O)O)[C@@H]1C[C@H]1N,57.3,25.6,,,0
[N-]=[N+]=N[C@@H](C(=O)O)[C@@H]1C[C@H]1N,57.2,11.8,6.8,5 to 7,
